Read-outs that look alike come from different tables or passages of the source.
Assays:
FLT3 = target: T1, FLT3 (Homo sapiens, UniProt P36888); assay: FLT3 biochemical assay (ADP Hunter);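 further: FLT3 enzymatic activity quantified through the ADP produced by the kinase reaction, detected with an ADP Hunter readout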
T1 sequence (P36888 27-993): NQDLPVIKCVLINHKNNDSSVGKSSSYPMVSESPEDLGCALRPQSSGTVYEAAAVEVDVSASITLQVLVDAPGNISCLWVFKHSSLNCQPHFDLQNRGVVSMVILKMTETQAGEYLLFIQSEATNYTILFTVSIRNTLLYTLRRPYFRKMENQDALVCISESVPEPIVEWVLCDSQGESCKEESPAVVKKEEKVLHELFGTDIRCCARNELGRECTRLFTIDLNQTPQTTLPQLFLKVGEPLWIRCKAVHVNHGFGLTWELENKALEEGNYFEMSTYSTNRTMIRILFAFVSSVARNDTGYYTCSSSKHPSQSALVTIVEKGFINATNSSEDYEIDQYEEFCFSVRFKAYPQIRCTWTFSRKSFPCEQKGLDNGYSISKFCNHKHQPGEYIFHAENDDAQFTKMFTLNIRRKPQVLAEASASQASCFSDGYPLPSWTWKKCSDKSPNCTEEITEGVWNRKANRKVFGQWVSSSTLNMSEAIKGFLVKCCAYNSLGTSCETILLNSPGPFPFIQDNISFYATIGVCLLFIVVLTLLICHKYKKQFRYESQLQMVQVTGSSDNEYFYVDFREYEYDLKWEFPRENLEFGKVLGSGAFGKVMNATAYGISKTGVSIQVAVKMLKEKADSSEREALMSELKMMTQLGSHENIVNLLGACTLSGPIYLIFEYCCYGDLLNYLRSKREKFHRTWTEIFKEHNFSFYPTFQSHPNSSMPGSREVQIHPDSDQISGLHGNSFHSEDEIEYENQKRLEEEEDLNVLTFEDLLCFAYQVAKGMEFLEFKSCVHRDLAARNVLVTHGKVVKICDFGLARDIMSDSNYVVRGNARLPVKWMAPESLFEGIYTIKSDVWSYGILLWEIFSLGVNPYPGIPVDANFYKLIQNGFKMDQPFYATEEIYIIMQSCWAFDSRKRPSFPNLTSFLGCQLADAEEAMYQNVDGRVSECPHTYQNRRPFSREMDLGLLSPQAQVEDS

PIM-3 = target: T2, PIM-3 (Homo sapiens, UniProt Q86V86); assay: PIM-3 biochemical assay (ADP Hunter); settings: read-out: PIM3 IC50;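 further: kinase activity read out as the quantity of ADP generated by the enzyme reaction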
T2 construct: purchased Millipore 14-738

PIM-2 = target: T3, PIM-2 (Homo sapiens, UniProt Q9P1W9); assay: PIM-2 biochemical assay (ADP Hunter); settings: semi-quantitative class; read-out: PIM2 IC50;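 further: recombinant N-terminally His-tagged human enzyme, kinase activity quantified by detection of ADP formed as the direct reaction product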
T3 construct: histidine tag (N); made in house

PIM-1 = target: T4, PIM-1 (Homo sapiens, UniProt P11309); assay: PIM-1 biochemical assay (ADP Hunter); settings: read-out: PIM1 IC50;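 further: recombinant human PIM-1 carrying a C-terminal His tag, kinase activity quantified via ADP formed as the direct enzymatic product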
T4 construct: histidine tag (C); made in house

tumor cell lines = assay: Combination assay (MTT in vitro cell proliferation, combination index); assay type: cell-based; settings: for EC50: read-out: Chemo EC50
[1] = actual IC50 value in parentheses
[2] = Jeko-1, combined with lapatinib
[3] = SKMel19, combined with GDC-0879
[4] = Homo sapiens, SK-MEL19, SKMel19, melanoma, chemotherapeutic alone
[5] = Homo sapiens, JeKo-1, Jeko-1, Mantle cell lymphoma, chemotherapeutic alone
[6] = Homo sapiens, MV4-11, MV4:11, leukemia (AML), chemotherapeutic alone
[7] = Homo sapiens, MIA PaCa-2, MiaPaca-2, pancreas, chemotherapeutic alone

T3 sequence (Q9P1W9 whole entry): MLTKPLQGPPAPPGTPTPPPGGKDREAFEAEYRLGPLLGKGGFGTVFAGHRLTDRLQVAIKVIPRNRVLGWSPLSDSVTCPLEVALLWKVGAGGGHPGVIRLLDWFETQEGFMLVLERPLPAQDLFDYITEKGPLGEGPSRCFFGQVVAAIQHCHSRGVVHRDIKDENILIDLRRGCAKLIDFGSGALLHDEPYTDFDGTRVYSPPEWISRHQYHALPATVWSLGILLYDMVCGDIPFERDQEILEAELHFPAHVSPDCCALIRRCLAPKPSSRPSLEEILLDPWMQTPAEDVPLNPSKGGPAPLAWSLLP
T4 sequence (P11309 whole entry): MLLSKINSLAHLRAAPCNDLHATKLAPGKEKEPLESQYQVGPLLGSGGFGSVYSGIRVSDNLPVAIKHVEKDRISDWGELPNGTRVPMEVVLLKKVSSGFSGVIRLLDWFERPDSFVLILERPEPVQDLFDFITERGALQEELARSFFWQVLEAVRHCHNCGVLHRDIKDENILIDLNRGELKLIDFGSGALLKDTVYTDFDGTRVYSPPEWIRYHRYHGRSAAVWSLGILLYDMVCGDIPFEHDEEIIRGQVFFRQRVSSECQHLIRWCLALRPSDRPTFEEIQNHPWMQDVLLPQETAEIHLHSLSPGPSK

| IC50 (FLT3; semi-quantitative class) [µM] | IC50 (PIM-3; semi-quantitative class) [µM] | IC50 (PIM-2) [µM] | IC50 (PIM-1; [1]) [µM] | IC50 (PIM-1; semi-quantitative class) [µM] | Structure (SMILES) | also measured |
| --- | --- | --- | --- | --- | --- | --- |
| > 1 | < 0.1 | 0.1 to 1 |  |  | Oc1ccc(-n2nnc3ccc(NCc4ccc(F)cc4)nc32)cc1 [2-04, 4-[5-(4-Fluoro-benzylamino)-[1,2,3]triazolo[4,5-b]pyridin-3-yl]-phenol] | IC50 (PIM-3; [1]): 0.051 µM |
| > 1 | 0.1 to 1 | > 1 |  |  | CN1CCC(CNc2ccc3nnn(-c4cccc(OC(F)(F)F)c4)c3n2)CC1 [2-19, (1-Methyl-piperidin-4-ylmethyl)-[3-(3-trifluoromethoxy-phenyl)-3H-[1,2,3]triazolo[4,5-b]pyridin-5-yl]-amine] |  |
| > 1 | < 0.1 | > 1 | 0.034 | < 0.1 | FC(F)(F)Oc1cccc(-n2nnc3ccc(NCC4CCN(Cc5ccncc5)CC4)nc32)c1 [2-25] | Combination Index (CI) (tumor cell lines; [2]): 0.387; Synergy (tumor cell lines; [2]): ++ (0.3 < CI < 0.7 (++)); Combination Index (CI) (tumor cell lines; MV4:11, combined with GDC-0941): 0.311; Synergy (tumor cell lines; MV4:11, combined with GDC-0941): ++ (0.3 < CI < 0.7 (++)); Combination Index (CI) (tumor cell lines; [3]): 0.87; Synergy (tumor cell lines; [3]): + (0.7 < CI < 1.2 (+)); IC50 (PIM-3; [1]): 0.022 µM |
| > 1 | > 1 | > 1 |  |  | FCCN1CCC(CNc2ccc3nnn(-c4cccc(OC(F)(F)F)c4)c3n2)CC1 [2-28] |  |
| 0.1 to 1 | < 0.1 | > 1 | 0.011 | < 0.1 | Oc1ccc(-n2nnc3ccc(NCC4CCNCC4)nc32)cc1 [2-32] | IC50 (PIM-3; [1]): 0.015 µM |
| > 1 | 0.1 to 1 | > 1 |  |  | CNC1CCN(c2ccc3nnn(-c4cccc(OC(F)(F)F)c4)c3n2)CC1 [2-44] |  |
| > 1 | 0.1 to 1 | 0.1 to 1 |  |  | FC(F)(F)Oc1cccc(-n2nnc3ccc(N4CC5(CCNCC5)C4)nc32)c1 [2-49] | Synergy (tumor cell lines; NCIH23, combined with lapatinib): + (0.7 < CI < 1.2 (+)) |
| > 1 | > 1 | 0.1 to 1 | 0.079 | < 0.1 | CS(=O)(=O)N1CCC(Nc2ccc3nnn(-c4cccc(OC(F)(F)F)c4)c3n2)CC1 [2-56] |  |
| > 1 | 0.1 to 1 | > 1 |  | < 0.1 | O[C@H]1CC[C@@H](CNc2ccc3nnn(-c4cccc(OC(F)(F)F)c4)c3n2)CC1 [2-57] |  |
| > 1 | > 1 | > 1 | 0.085 | < 0.1 | FC(F)(F)Oc1cccc(-n2nnc3ccc(N4CCOC5(CCNCC5)C4)nc32)c1 [2-58] |  |
| > 1 | 0.1 to 1 | > 1 |  | < 0.1 | FC(F)(F)Oc1cccc(-n2nnc3ccc(N4CCCC5(CCNCC5)C4)nc32)c1 [2-59] |  |
| > 1 | > 1 | > 1 | 0.074 | < 0.1 | FC(F)(F)Oc1cccc(-n2nnc3ccc(N4CCC5(CC4)CNCCO5)nc32)c1 [2-61] |  |
| > 1 | 0.1 to 1 | > 1 |  |  | FC(F)(F)Oc1cccc(-n2nnc3ccc(N4CCC5(CCNCC5)C4)nc32)c1 [2-62] |  |
| > 1 | 0.1 to 1 | > 1 |  |  | FC(F)(F)c1cccc(-n2nnc3ccc(NCC4CCNCC4)nc32)c1 [2-63] |  |
|  |  |  |  |  | O[C@H]1CC[C@@H](Nc2ccc3nnn(-c4cccc(OC(F)(F)F)c4)c3n2)CC1 [2-68] | Synergy (tumor cell lines; [2]): ++ (0.3 < CI < 0.7 (++)); Synergy (tumor cell lines; MV4:11, combined with GDC-0941): ++ (0.3 < CI < 0.7 (++)) |
| > 1 | 0.1 to 1 | > 1 |  |  | FC(F)(F)Oc1cccc(-n2nnc3ccc(N4CCNCC4)nc32)c1 [2-69] |  |

| IC50 (FLT3; semi-quantitative class) [µM] | IC50 (PIM-3; semi-quantitative class) [µM] | IC50 (PIM-2) [µM] | IC50 (PIM-1; [1]) [µM] | IC50 (PIM-1; semi-quantitative class) [µM] | Structure (SMILES) | also measured |
| --- | --- | --- | --- | --- | --- | --- |
| > 1 | 0.1 to 1 | 0.1 to 1 |  | 0.1 to 1 | OC1CCN(c2ccc3nnn(-c4cccc(OC(F)(F)F)c4)c3n2)CC1 [2-70] |  |
|  | > 1 | > 1 |  | 0.1 to 1 | CS(=O)(=O)N1CCN(c2ccc3nnn(-c4cccc(OC(F)(F)F)c4)c3n2)CC1 [2-72] |  |
| > 1 | 0.1 to 1 | > 1 |  |  | CC(C)N1CCC(CNc2ccc3nnn(-c4cccc(OC(F)(F)F)c4)c3n2)CC1 [2-73] |  |
| > 1 | 0.1 to 1 | > 1 |  |  | CCN1CCC(CNc2ccc3nnn(-c4cccc(OC(F)(F)F)c4)c3n2)CC1 [2-76] |  |
| < 0.1 | < 0.1 | > 1 |  | < 0.1 | FC(F)(F)Oc1cccc(-n2nnc3cc(Cl)c(N4CCCC5(CCCN5)CC4)nc32)c1 (stereo not shown) [2-78] | IC50 (FLT3; [1]): 0.02 µM; IC50 (PIM-3; [1]): 0.056 µM |
| 0.1 to 1 | < 0.1 | > 1 | 0.033 | < 0.1 | FC(F)(F)Oc1cccc(-n2nnc3cc(Cl)c(NC4CC5(CCNCC5)C4)nc32)c1 [2-79] | IC50 (PIM-3; [1]): 0.04 µM |
| > 1 | 0.1 to 1 | > 1 |  | 0.1 to 1 | CS(=O)(=O)NC1CCN(c2ccc3nnn(-c4cccc(OC(F)(F)F)c4)c3n2)CC1 [2-80] |  |
| 0.1 to 1 | 0.1 to 1 | > 1 | 0.071 | < 0.1 | FC(F)(F)c1cccc(-n2nnc3ccc(N4CCCC5(CCCN5)CC4)nc32)c1 (stereo not shown) [2-81] |  |
| < 0.1 | < 0.1 | 0.1 to 1 | 0.011 | < 0.1 | FC(F)(F)Oc1cccc(-n2nnc3cc(Br)c(NCC4CCNCC4)nc32)c1 [2-89] | IC50 (FLT3; [1]): 0.058 µM; IC50 (PIM-3; [1]): 0.008 µM |
| > 1 | < 0.1 | > 1 | 0.009 | < 0.1 | COc1cc(NCC2CC3(CCNCC3)C2)nc2c1nnn2-c1cccc(N(C)C)c1 [2-94] | IC50 (PIM-3; [1]): 0.056 µM |
| > 1 | < 0.1 | > 1 | 0.032 | < 0.1 | COc1cc(NC2CC3(CCNCC3)C2)nc2c1nnn2-c1cccc(N(C)C)c1 [2-96] | IC50 (PIM-3; [1]): 0.068 µM |
|  |  |  |  |  | OCCn1cc(-c2ccc3c(c2)CC/C3=N\O)c(-c2ccncc2)n1 [GDC-0879, reference compound] | EC50 (tumor cell lines; [4]): 0.3 µM |
|  |  |  |  |  | CS(=O)(=O)N1CCN(Cc2cc3nc(-c4cccc5[nH]ncc45)nc(N4CCOCC4)c3s2)CC1 [GDC-0941, reference compound] | EC50 (tumor cell lines; Homo sapiens, A549, A549, lung adenocarcinoma, chemotherapeutic alone): 6 µM; EC50 (tumor cell lines; [5]): 1 µM; EC50 (tumor cell lines; [6]): 0.5 µM; EC50 (tumor cell lines; Homo sapiens, NCI-H1975, NCIH1975, non small cell lung carcinoma, chemotherapeutic alone): 20 µM; EC50 (tumor cell lines; [4]): 0.5 µM; EC50 (tumor cell lines; PC3, prostate cancer, chemotherapeutic alone): 10 µM |
|  |  |  |  |  | Nc1ccn([C@@H]2O[C@H](CO)[C@@H](O)C2(F)F)c(=O)n1 [Gemcitabine, 4-amino-1-[3,3-difluoro-4-hydroxy-5-(hydroxymethyl)tetrahydrofuran-2-yl]-1H-pyrimidin-2-one, reference compound] | EC50 (tumor cell lines; [7]): 0.05 µM |
|  |  |  |  |  | O=C(NOC[C@H](O)CO)c1ccc(F)c(F)c1Nc1ccc(I)cc1F [PD-0325901, (R)—N-(2,3-dihydroxypropoxy)-3,4-difluoro-2-(2-fluoro-4-iodophenylamino)benz-amide, reference compound] | EC50 (tumor cell lines): 1.25 µM |
|  |  |  |  |  | CS(=O)(=O)CCNCc1ccc(-c2ccc3ncnc(Nc4ccc(OCc5cccc(F)c5)c(Cl)c4)c3c2)o1 [lapatinib, N-(3-chloro-4-(3-fluorobenzyloxy)phenyl)-6-(5-((2-(methylsulfonyl)ethylamino)-methyl)furan-2-yl)quinazolin-4-amine, reference compound] | EC50 (tumor cell lines; HTC116, colon carcinoma, chemotherapeutic alone): 10 µM; EC50 (tumor cell lines; [5]): 5 µM; EC50 (tumor cell lines; [7]): 20 µM; EC50 (tumor cell lines; [6]): 5 µM; EC50 (tumor cell lines; Homo sapiens, NCI-H23, NCIH23, non small cell lung carcinoma, chemotherapeutic alone): 10 µM |

Source: patent US20130065883A1 (Centro Nacional de Investigaceiones Oncologicas (CNIO), priority 2010, published 2013)
